Laboratory results from patent US8263610B2, “Substituted imidazolyl-5,6-dihydrobenzo[N]isoquinoline compounds” (ArQule, Inc., priority 2008, dated 2012).

Legend:
NCI-H1299 cells = assay: MTS assay, inhibition of cell growth; format: cell-based; settings: Homo sapiens, compound at 10 μM, 72 hours
Method: (§1) MDA-MB-231, DLD-1, Kato III NCI-H1299, PACA-2 cells, were maintained at 37° C., 5% CO2 in DMEM media supplemented with 10% fetal bovine serum, penicillin/streptomycin and fungizone (Invitrogen). Cells were seeded into 96-well tissue culture plates at 3000 per well and cultured at 37° C. for 18 hours. Test compounds were dissolved and diluted to 300× in DMSO then further diluted 1:40 in DMEM before addition to cells (1:7.5 dilution). Cells were incubated with test compounds for 72 hours followed by incubation with tetrazolium compound (3-(4,5-dimethylthiazol-2-yl)-5-(3-carboxymethoxyphenyl)-2-(4-sulfophenyl)-2H-tetrazolium, inner salt; MTS) and the electron coupling reagent, phenazine methosulfate (PMS) for 4 hours. […] The ability of compounds to inhibit cell growth in this assay is correlated with the reduction of dehydrogenase enzyme activity found in metabolically active cells. The measurement of the absorbance of the formazan was assessed using an ENVISION™ (Perkin Elmer) microplate reader at 492 nm.

PACA-2 cells = assay: MTS assay, inhibition of cell growth; format: cell-based; settings: compound at 10 μM, 72 hours
Method: as §1

Kato III cells = assay: MTS assay, inhibition of cell growth; format: cell-based; settings: Homo sapiens, compound at 10 μM, 72 hours
Method: as §1

MDA-MB-231 cells = assay: MTS assay, inhibition of cell growth; format: cell-based; settings: Homo sapiens, compound at 10 μM, 72 hours
Method: as §1

DLD-1 cells = assay: MTS assay, inhibition of cell growth; format: cell-based; settings: Homo sapiens, compound at 10 μM, 72 hours
Method: as §1

Structure (SMILES)	inhibition at 10 µM (NCI-H1299 cells) [%]	inhibition at 10 µM (PACA-2 cells) [%]	inhibition at 10 µM (Kato III cells) [%]	inhibition at 10 µM (MDA-MB-231 cells) [%]	inhibition at 10 µM (DLD-1 cells) [%]	melting point [°C]
O=S(=O)(Cc1noc2ccccc12)NC1CCc2c(cnc3[nH]ncc23)C1 (centres unmarked) [1-(1,2-benzisoxazol-3-yl)-N-(6,7,8,9-tetrahydro-3H-pyrazolo[3,4-c]isoquinolin-7-yl)methanesulfonamide]	25 to 49	75 to 100	75 to 100	25 to 49	50 to 74	
O=C(Nc1cccc2ccccc12)NC1CCc2c(cnc3[nH]ncc23)C1 (centres unmarked) [1-(1-naphthyl)-3-(6,7,8,9-tetrahydro-3H-pyrazolo[3,4-c]isoquinolin-7-yl)urea]	25 to 49	25 to 49	75 to 100	50 to 74	75 to 100	
O=C(NCCc1ccccc1)NC1CCc2c(cnc3[nH]ncc23)C1 (centres unmarked) [1-(2-phenylethyl)-3-(6,7,8,9-tetrahydro-3H-pyrazolo[3,4-c]isoquinolin-7-yl)urea]	75 to 100	75 to 100	75 to 100	75 to 100	75 to 100	
O=C(Nc1cccc(Cl)c1F)NC1CCc2c(cnc3[nH]ncc23)C1 (centres unmarked) [1-(3-chloro-2-fluorophenyl)-3-(6,7,8,9-tetrahydro-3H-pyrazolo[3,4-c]isoquinolin-7-yl)urea]	75 to 100	75 to 100	75 to 100	75 to 100	75 to 100	
Cc1ccc(-c2n[nH]c3ncc4c(c23)CCN(C(=O)Nc2ccccc2)C4)o1 [1-(5-methylfuran-2-yl)-N-phenyl-3,6,8,9-tetrahydro-7H-pyrazolo[3,4-c][2,7]naphthyridine-7-carboxamide]	75 to 100	75 to 100	75 to 100	75 to 100	75 to 100	
O=C(C(c1ccccc1)N1CCNCC1)N1CCc2c(cnc3[nH]nc(Br)c23)C1 (centres unmarked) [1-bromo-7-[phenyl(piperperazin-1-yl)acetyl]-6,7,8,9-tetrahydro-3H-pyrazolo[3,4-c][2,7]naphthyridine]	75 to 100	75 to 100	75 to 100	75 to 100	75 to 100	
N[C@H](C(=O)N1CCc2c(cnc3[nH]ncc23)C1)c1ccccc1 [(1S)-2-oxo-1-phenyl-2-(3,6,8,9-tetrahydro-7H-pyrazolo[3,4-c][2,7]naphthyridin-7-yl)ethanamine]		50 to 74		50 to 74	< 24	
Cc1cncc(Oc2cccc(NC(=O)N3CCc4c(cnc5[nH]nc(Br)c45)C3)c2)n1 [Example 403, 1-bromo-N-{3-[(6-methylpyrazin-2-yl)oxy]phenyl}-3,6,8,9-tetrahydro-7H-pyrazolo[3,4-c][2,7]naphthyridine-7-carboxamide]						221 to 223
Cc1nc(-c2cccc(NC(=O)N3CCc4c(cnc5[nH]nc(Br)c45)C3)c2)no1 [Example 404, 1-bromo-N-[3-(5-methyl-1,2,4-oxadiazol-3-yl)phenyl]-3,6,8,9-tetrahydro-7H-pyrazolo[3,4-c][2,7]naphthyridine-7-carboxamide]						> 152
Cc1nc(-c2cccc(NC(=O)N3CCc4c(cnc5[nH]ncc45)C3)c2)no1 [Example 406, N-(3-(5-methyl-1,2,4-oxadiazol-3-yl)phenyl)-8,9-dihydro-3H-pyrazolo[3,4-c][2,7]naphthyridine-7(6H)-carboxamide]						> 140
O=C(Nc1ccccc1)N1CCc2c(cnc3[nH]nc(-c4ccccc4)c23)C1 [Example 407, N,1-diphenyl-8,9-dihydro-3H-pyrazolo[3,4-c][2,7]naphthyridine-7(6H)-carboxamide]						150 to 170
O=C(Nc1cccc(Cc2ccccc2)c1)N1CCc2c(cnc3[nH]ncc23)C1 [Example 408, N-(3-benzylphenyl)-8,9-dihydro-3H-pyrazolo[3,4-c][2,7]naphthyridine-7(6H)-carboxamide]						175 to 178
COc1ccc(-c2ccccc2)cc1NC(=O)N1CCc2c(cnc3[nH]ncc23)C1 [Example 409, N-(4-methoxybiphenyl-3-yl)-8,9-dihydro-3H-pyrazolo[3,4-c][2,7]naphthyridine-7(6H)-carboxamide]						148 to 151
O=C(c1ccccc1)N1CCc2c(cnc3[nH]ncc23)C1 [Example 427, (8,9-dihydro-3H-pyrazolo[3,4-c][2,7]naphthyridin-7(6H)-yl)(phenyl)methanone]						198 to 200
O=C(NC1CCc2c(cnc3[nH]ncc23)C1)c1ccccc1 (centres unmarked) [Example 430, N-(6,7,8,9-tetrahydro-3H-pyrazolo[3,4-c]isoquinolin-7-yl)benzamide]						> 300
O=C(c1ccccc1)N1CCc2cnc3[nH]ncc3c2-c2ccccc21 [Example 431, 8-(phenylcarbonyl)-3,6,7,8-tetrahydropyrazolo[4′,3′:5,6]pyrido[3,4-d][1]benzazepine]						> 150

Structure (SMILES)	inhibition at 10 µM (NCI-H1299 cells) [%]	inhibition at 10 µM (PACA-2 cells) [%]	inhibition at 10 µM (Kato III cells) [%]	inhibition at 10 µM (MDA-MB-231 cells) [%]	inhibition at 10 µM (DLD-1 cells) [%]	melting point [°C]
O=C(O)C(c1ccccc1)N1CCc2c(cnc3[nH]ncc23)C1 (centres unmarked) [Example 433, 2-(8,9-dihydro-3H-pyrazolo[3,4-c][2,7]naphthyridin-7(6H)-yl)-2-phenylacetic acid]						237 to 240
COc1ccc(Cn2ncc3c4c(cnc32)CN(c2ncnc3[nH]nc(C(=O)c5ccccc5)c23)CC4)cc1 [Example 434, (4-(3-(4-methoxybenzyl)-8,9-dihydro-3H-pyrazolo[3,4-c][2,7]naphthyridin-7(6H)-yl)-1H-pyrazolo[3,4-d]pyrimidin-3-yl)(phenyl)methanone]						> 145
O=C(c1ccccc1)c1c[nH]c2ncnc(N3CCc4c(cnc5[nH]nc(Br)c45)C3)c12 [Example 436]						300 to 302
COc1ccc(Cn2ncc3c4c(cnc32)CN(C(=N)N)CC4)cc1 [Example 474, 3-(4-methoxybenzyl)-8,9-dihydro-3H-pyrazolo[3,4-c][2,7]naphthyridine-7(6H)-carboximidamide]						255 to 256
O=C(Cc1ccccc1)N1CCc2c(cnc3[nH]ncc23)C1 [Example 476, 1-(8,9-dihydro-3H-pyrazolo[3,4-c][2,7]naphthyridin-7(6H)-yl)-2-phenylethanone]						164 to 166
O=C(NC[C@@H]1CCCO1)c1cccc(NC(=O)N2CCc3c(cnc4[nH]ncc34)C2)c1 [N-(3-{[(2S)-tetrahydrofuran-2-ylmethyl]carbamoyl}phenyl)-3,6,8,9-tetrahydro-7H-pyrazolo[3,4-c][2,7]naphthyridine-7-carboxamide]		75 to 100	75 to 100	75 to 100	75 to 100	
CC(=O)Nc1cccc(-c2n[nH]c3ncc4c(c23)CCNC4)c1 [N-[3-(6,7,8,9-tetrahydro-3H-pyrazolo[3,4-c][2,7]naphthyridin-1-yl)phenyl]acetamide]			75 to 100	25 to 49	50 to 74	
c1ccc(CNC2CCc3c(cnc4[nH]ncc34)C2)cc1 (centres unmarked) [N-benzyl-6,7,8,9-tetrahydro-3H-pyrazolo[3,4-c]isoquinolin-7-amine]		< 24		< 24	< 24	
c1ccc(C2Cc3cnc4[nH]ncc4c3-c3ccccc32)cc1 (centres unmarked) [drawing 555, 7-phenyl-6,7-dihydro-3H-benzo[f]pyrazolo[3,4-c]isoquinoline]		< 24	25 to 49	< 24	25 to 49	
Clc1ccc(C2Cc3cnc4[nH]ncc4c3-c3ccccc32)c(Cl)c1 (centres unmarked) [drawing 557, 7-(2,4-dichlorophenyl)-6,7-dihydro-3H-benzo[f]pyrazolo[3,4-c]isoquinoline]	25 to 49	< 24	50 to 74		50 to 74	
O=C(Nc1ccccc1)NC1CCc2c(cnc3[nH]ncc23)C1 (centres unmarked) [drawing 560, 1-phenyl-3-(6,7,8,9-tetrahydro-3H-pyrazolo[3,4-c]isoquinolin-7-yl)urea]		< 24			< 24	
Cc1cc(C)c2c(c1)-c1c(cnc3[nH]ncc13)CC2 [drawing 561, 8,10-dimethyl-6,7-dihydro-3H-benzo[f]pyrazolo[3,4-c]isoquinoline]		< 24	25 to 49	25 to 49	75 to 100	
COc1ccc2c(c1)-c1c(cnc3[nH]ncc13)CC2 [drawing 562, 10-methoxy-6,7-dihydro-3H-benzo[f]pyrazolo[3,4-c]isoquinoline]		< 24	25 to 49		< 24	
Cc1nc(-c2cccc(NC(=O)N3CCc4c(cnc5[nH]nc(Br)c45)C3)c2)no1 [drawing 581, 1-bromo-N-[3-(5-methyl-1,2,4-oxadiazol-3-yl)phenyl]-3,6,8,9-tetrahydro-7H-pyrazolo[3,4-c][2,7]naphthyridine-7-carboxamide]		< 24	< 24			
O=C(Nc1ccccc1)C1CCc2c(cnc3[nH]ncc23)C1 (centres unmarked) [drawing 584, N-phenyl-6,7,8,9-tetrahydro-3H-pyrazolo[3,4-c]isoquinoline-7-carboxamide]		< 24	75 to 100	< 24	50 to 74	
